# Assays:
# [1] = tested on: colonic mucus hydrogel; test: Ex vivo polymer-induced compression of washed colonic mucus hydrogel (1 μm microparticle method); parameters: species or system mice; settings: 500 mM acetate
# Description: Each mouse was euthanized; the colon was removed and immediately flushed gently with ice-cold 1× PBS, and placed ˜1 cm long segments of the mid-colon in ice-cold PBS. […] The hydrogel thickness was detected through imaging of the washed tissue. […] This ensured that the microparticles deposited onto the mucus hydrogel surface. both the epithelium and the deposited microparticles were simultaneously imaged using confocal or two-photon reflectance microscopy. After measuring the initial washed mucus thickness, ˜0.2-2mL of the test polymer solution was gently deposited onto the exposed luminal surface and then collected the same 3D stacks at the same xy fields of view To measure the “percent compression”, or the overall percentage change in the thickness, of the colonic mucus after exposure to the polymer solution, the thickness was measured before and after exposure to the solution at the same five xy positions, using the distance between the epithelial surface and the deposited microparticles in the 3D stacks. To calculate the percentage compression, the percentage change in the thickness measured was calculated, as well as the measurement uncertainty (using the optical slice thickness as the experimental uncertainty in the measured thickness), at each of these five xy positions. The percentage compression was calculated as the mean of these five measured values. […]
# [2] = tested on: colonic mucus hydrogel; test: Ex vivo penetration or exclusion of probes and polymers in adherent colonic mucus hydrogel; parameters: species or system mice; settings: washed explant, incubated 1-2 h at 4° C.
Molecule,mucus compression [1],penetration into or exclusion from adherent mucus hydrogel [2],penetration into or exclusion from adherent mucus hydrogel ([2]; listed as Fluorescent PEG 200 kDa)
CC(=O)O [acetate],≈ 10%,,
FITC-dextran [fluorescent dextran 2 MDa],,penetrate the hydrogel,
Methoxyl polyethylene glycol-FITC [mPEG-FITC 200k],,Penetration of mucus,penetrate the hydrogel

# Source: patent publication US20170189444A1, “POLYMERIC COMPOSITIONS AND RELATED SYSTEMS AND METHODS FOR REGULATING BIOLOGICAL HYDROGELS” (CALIFORNIA INSTITUTE OF TECHNOLOGY, priority 2016, published 2017)
